Assay results reported in patent US9175305B2, “Mutant hydroxyphenylpyruvate dioxygenase polypeptides and methods of use” (Syngenta Participations AG, priority 2009, dated 2015).

What was measured:
[1] = system: G408A mutant of HPPD SEQ ID NO:14; assay: time course of inhibition of enzyme activity; format: biochemical, Avena sativa; conditions: inhibitor at 0.15 or 0.6 μM
[2] = system: soybean event 1 (vector 15764) expressing SEQ ID NO:14; assay: herbicide spray test on soybean events; format: in vivo; conditions: C 400 g/ha; event 1/SEQ#14; V2 growth stage; 14 DAT; average of n=7
Source text: (§1) Each data point represents the average damage score from n=7 replicates.
(§2) These events were used to compare the performance of five 17147 events. Four of these, SF, S8, S7 and S3 had not been preselected for tolerance level (other than to confirm resistance, non-chimerical nature and the presence of the gene) while the remaining event, T0, had been preselected as the most resistant out of five 17147 events in a preliminary field test.
(§3) Plants were in 4×4×4 inch plastic pots and grown under a 15/9 hour light regime (daylight supplemented by artificial light in greenhouses) at a minimum night-time temperature of 18° C. and maximum daytime temperature of 27° C. Soil was regular VBRC mix (1:1 mixture of Vero field soil and Fafard Mix II) where Vero field soil is 98% sand and 2% clay. […] Spray volume was 150 L/ha and the damage scores reflect assessments at 14 DAT.

[3] = system: soybean event 2 (vector 15764) expressing SEQ ID NO:14; assay: herbicide spray test on soybean events; format: in vivo; conditions: C 400 g/ha; event 2/SEQ#14; V2 growth stage; 14 DAT; average of n=7
Source text: as §1, §2, §3

[4] = system: soybean event S3 (vector 17147) expressing SEQ ID NO:24; assay: herbicide spray test on soybean events; format: in vivo; conditions: C 400 g/ha; event S3/SEQ#24; V2 growth stage; 14 DAT; average of n=7
Source text: as §1, §2, §3

[5] = system: soybean event S7 (vector 17147) expressing SEQ ID NO:24; assay: herbicide spray test on soybean events; format: in vivo; conditions: C 400 g/ha; event S7/SEQ#24; V2 growth stage; 14 DAT; average of n=7
Source text: as §1, §2, §3

[6] = system: soybean event S8 (vector 17147) expressing SEQ ID NO:24; assay: herbicide spray test on soybean events; format: in vivo; conditions: C 400 g/ha; event S8/SEQ#24; V2 growth stage; 14 DAT; average of n=7
Source text: as §1, §2, §3

[7] = system: soybean event SF (vector 17147) expressing SEQ ID NO:24; assay: herbicide spray test on soybean events; format: in vivo; conditions: C 400 g/ha; event SF/SEQ#24; V2 growth stage; 14 DAT; average of n=7
Source text: as §1, §2, §3

[8] = system: soybean event T0 (vector 17147) expressing SEQ ID NO:24; assay: herbicide spray test on soybean events; format: in vivo; conditions: C 400 g/ha; event T0/SEQ#24; V2 growth stage; 14 DAT; average of n=7
Source text: as §1, §2, §3

Jack w/t = assay: herbicide spray test on soybean; format: in vivo; conditions: C 400 g/ha, V2 growth stage, 14 DAT, average of n=7
Procedure: as §1, §3

SMILES: COCCOCc1nc(C(F)(F)F)ccc1C(=O)C1C(=O)C2CCC(C2)C1=O (stereo not drawn) [Structure C]
- extent of inhibition compared with the control enzyme [1]: to a lesser extent
- % dam. [2]: 42.1%
- % dam. [3]: 52.9%
- % dam. [4]: 62.1%
- % dam. [5]: 45%
- % dam. [6]: 68.6%
- % dam. [7]: 98.6%
- % dam. [8]: 45%
- % dam. (Jack w/t): 82.1%
